One test deals with T1, TTK (Homo sapiens, UniProt P33981).
T1 construct: purchased Eurofins (Celle Lévescault)
T1 sequence (P33981 1-857): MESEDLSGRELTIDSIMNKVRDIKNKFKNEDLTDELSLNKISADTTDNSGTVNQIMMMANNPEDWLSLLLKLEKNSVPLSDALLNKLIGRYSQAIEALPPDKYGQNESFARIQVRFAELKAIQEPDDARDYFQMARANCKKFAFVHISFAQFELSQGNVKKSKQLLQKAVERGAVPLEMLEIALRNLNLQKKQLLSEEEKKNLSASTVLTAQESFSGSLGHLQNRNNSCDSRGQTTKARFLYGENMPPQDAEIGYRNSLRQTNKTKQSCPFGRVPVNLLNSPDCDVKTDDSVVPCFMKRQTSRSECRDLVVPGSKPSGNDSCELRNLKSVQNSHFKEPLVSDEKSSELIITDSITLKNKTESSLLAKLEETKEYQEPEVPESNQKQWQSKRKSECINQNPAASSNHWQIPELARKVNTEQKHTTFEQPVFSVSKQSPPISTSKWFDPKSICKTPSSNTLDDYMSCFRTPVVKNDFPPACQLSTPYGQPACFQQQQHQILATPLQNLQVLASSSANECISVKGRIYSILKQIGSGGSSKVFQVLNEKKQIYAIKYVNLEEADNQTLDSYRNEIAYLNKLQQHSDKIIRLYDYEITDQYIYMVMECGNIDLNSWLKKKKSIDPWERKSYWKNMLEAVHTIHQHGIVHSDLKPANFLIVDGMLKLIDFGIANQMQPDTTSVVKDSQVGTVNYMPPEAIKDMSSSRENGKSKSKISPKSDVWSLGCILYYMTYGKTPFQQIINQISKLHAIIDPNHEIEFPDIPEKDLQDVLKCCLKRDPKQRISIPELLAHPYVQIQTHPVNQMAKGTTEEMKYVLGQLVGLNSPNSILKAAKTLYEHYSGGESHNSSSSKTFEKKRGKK
Kind of test: Eurofins kinase selectivity profile, TTK. Type of test: biochemical. The protocol: (§1) Subsequently, to ascertain whether the high potency of compound 11 was specific for MK2, an additional 380 human recombinant protein kinases were screened.
(§2) To assess the impact of various compounds on MK2 kinase activity, we utilized the ADP‐Glo Assay Kit (Promega) following the manufacturer's instructions. Luminescence measurements were taken using a SpectraMax Paradigm reader. The inhibition percentage was calculated using the following formula: ((specific signalDMSO control − specific signal inhibitor)/(specific signalDMSO control)) × 100%. The IC50 values were determined employing dose–response curve fitting via Prism (Graph Pad). Additionally, Eurofins company (Celle Lévescault) conducted the analysis on compound 11’s inhibitory activity against 380 other human recombinant kinases at various concentrations.

The target of test [1] is T2, p38 (Homo sapiens, UniProt O15264).
T2 construct: purchased Eurofins (Celle Lévescault)
T2 sequence (O15264 1-365): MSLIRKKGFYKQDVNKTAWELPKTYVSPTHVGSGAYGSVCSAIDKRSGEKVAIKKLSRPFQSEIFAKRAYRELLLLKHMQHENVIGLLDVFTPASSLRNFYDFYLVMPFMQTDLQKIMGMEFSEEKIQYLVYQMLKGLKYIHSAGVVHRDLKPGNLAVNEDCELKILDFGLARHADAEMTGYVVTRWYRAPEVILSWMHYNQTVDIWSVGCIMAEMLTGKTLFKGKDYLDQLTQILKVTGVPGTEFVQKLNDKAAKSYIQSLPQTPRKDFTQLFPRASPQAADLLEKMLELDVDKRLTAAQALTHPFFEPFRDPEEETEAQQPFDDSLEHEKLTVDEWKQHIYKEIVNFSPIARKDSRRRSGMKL
The test is described as follows: Eurofins kinase selectivity profile, p38. The test is classed as biochemical. To be noted: p38-delta/SAPK4(h), read-out: Inhibition rate (%). The procedure:
as §1, §2

The target of test [2] is T3, p38 (Homo sapiens, UniProt P53778).
T3 construct: purchased Eurofins (Celle Lévescault)
T3 sequence (P53778 1-367): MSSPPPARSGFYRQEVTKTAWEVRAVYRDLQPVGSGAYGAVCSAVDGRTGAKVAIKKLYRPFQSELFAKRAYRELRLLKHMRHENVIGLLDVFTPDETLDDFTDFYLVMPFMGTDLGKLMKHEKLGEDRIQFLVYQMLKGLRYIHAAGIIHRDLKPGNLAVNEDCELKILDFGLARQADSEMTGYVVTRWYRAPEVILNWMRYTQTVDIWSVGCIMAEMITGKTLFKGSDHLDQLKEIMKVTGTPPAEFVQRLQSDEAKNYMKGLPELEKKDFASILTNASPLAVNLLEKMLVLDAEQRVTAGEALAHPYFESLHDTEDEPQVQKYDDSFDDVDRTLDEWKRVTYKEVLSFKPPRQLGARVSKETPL
The test is described as follows: Eurofins kinase selectivity profile, p38. Type of test: biochemical. The note with it: p38-gamma/SAPK3(h), read-out: Inhibition rate (%). The protocol: as §1, §2

Test [3] addresses T4, p38 (Homo sapiens, UniProt Q15759).
T4 construct: purchased Eurofins (Celle Lévescault)
Kind of test: Eurofins kinase selectivity profile, p38. The test is classed as biochemical. To be noted: p38-beta/SAPK2b(h), read-out: Inhibition rate (%). The procedure: as §1, §2

Test [4] concerns the target T5, p38 (Homo sapiens, UniProt Q16539).
T5 construct: purchased Eurofins (Celle Lévescault)
Kind of test: Eurofins kinase selectivity profile, p38. The test is classed as biochemical. The procedure:
as §1, §2

Test [5] relates to p38. The test is described as follows: Eurofins kinase selectivity profile, p38. The test is classed as biochemical, human. The procedure:
as §1, §2

Experimental findings from paper PMC11233931, “Remodeling tumor‐associated macrophage for anti‐cancer effects by rational design of irreversible inhibition of mitogen‐activated protein kinase‐activated protein kinase 2” (MedComm, 2024) are described below.

The structures appear in SMILES notation. Where two headings read alike, the source gives them in different places.

In general, IC50 refers to the concentration that inhibits the measured activity by half. Lower therefore signals higher potency. As usually defined, the inhibition is the relative decrease from the control value, in per cent.

T4 sequence (Q15759 whole entry): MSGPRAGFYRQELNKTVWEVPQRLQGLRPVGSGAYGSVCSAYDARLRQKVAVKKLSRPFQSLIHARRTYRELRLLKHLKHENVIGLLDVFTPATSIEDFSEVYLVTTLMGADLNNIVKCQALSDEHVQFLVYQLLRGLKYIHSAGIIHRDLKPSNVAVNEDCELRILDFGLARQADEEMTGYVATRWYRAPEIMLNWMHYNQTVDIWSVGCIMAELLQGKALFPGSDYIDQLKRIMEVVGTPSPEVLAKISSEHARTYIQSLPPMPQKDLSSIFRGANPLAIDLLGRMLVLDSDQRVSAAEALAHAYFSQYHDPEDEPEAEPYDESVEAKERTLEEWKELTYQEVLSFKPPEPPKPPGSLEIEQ
T5 sequence (Q16539 2-360): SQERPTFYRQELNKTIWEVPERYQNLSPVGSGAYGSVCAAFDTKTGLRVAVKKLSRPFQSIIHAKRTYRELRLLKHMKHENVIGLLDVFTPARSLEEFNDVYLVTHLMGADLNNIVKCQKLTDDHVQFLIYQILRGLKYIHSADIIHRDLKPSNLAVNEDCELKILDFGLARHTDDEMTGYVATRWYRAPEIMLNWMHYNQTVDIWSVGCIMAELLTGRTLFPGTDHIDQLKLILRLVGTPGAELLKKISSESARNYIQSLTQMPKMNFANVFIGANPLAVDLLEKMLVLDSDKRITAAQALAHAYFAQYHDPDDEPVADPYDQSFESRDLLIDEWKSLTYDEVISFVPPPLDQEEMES

With `C=CC(=O)Nc1cc(-c2cc(-c3cc4c([nH]3)CCNC4=O)ccn2)ccc1OC(F)(F)F` [compound 11], the IC50 against TTK and at p38 [4] was more than 1000 nM each time. The inhibition at 0.01 µM was -1% at TTK (TTK(h), 10 nM, read-out: Inhibition rate); -3% on p38 [1] (10 nM); 5% at p38 [2] (10 nM); -7% at p38 [3] (10 nM); 0% at p38 [4] (p38-alpha/SAPK2a(h), 10 nM, read-out: Inhibition rate). Also, the inhibition at 0.1 µM at TTK (TTK(h), 100 nM, read-out: Inhibition rate) is 7%; on p38 [1] (100 nM), -6%; at p38 [2] (100 nM) it was 2%; on p38 [3] (100 nM), -11%; on p38 [4] (p38-alpha/SAPK2a(h), 100 nM, read-out: Inhibition rate) it was -3%. In addition, the inhibition at 1 µM on TTK (TTK(h), 1000 nM, read-out: Inhibition rate) is 43%; at p38 [1] (1000 nM) it was 8%; at p38 [2] (1000 nM) it was 20%; at p38 [3] (1000 nM), -4%; at p38 [4] (1 µM, read-out: inhibition rate on p38 kinase), less than 10%; at p38 [4] (p38-alpha/SAPK2a(h), 1000 nM, read-out: Inhibition rate) it was -5%. The “selectivity for MK2 over p38” value in the test on p38 [5] was “over 434 fold”.
